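Briefly, cells in 96-well plates were exposed to five compound concentrations for 48 h, and endpoints were estimated by linear interpolation. At the TGI there is no net growth.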
What was measured:
Assay in all cases: growth of human tumour cells (NCI), 48 h
A498 renal = system: A498 renal
BT-549 breast = system: BT-549 breast
CAKI-1 renal = system: CAKI-1 renal
CCRF-CEM leukemia = system: CCRF-CEM leukemia
COLO 205 colon = system: COLO 205 colon
DU-145 prostate = system: DU-145 prostate
HCC-2998 colon = system: HCC-2998 colon
HCT-116 colon = system: HCT-116 colon
HCT-15 colon = system: HCT-15 colon
HOP-62 NSCLC = system: HOP-62 NSCLC
HOP-92 NSCLC = system: HOP-92 NSCLC
HS 578T breast = system: HS 578T breast
HT29 colon = system: HT29 colon
K-562 leukemia = system: K-562 leukemia
KM12 colon = system: KM12 colon
LOX IMVI melanoma = system: LOX IMVI melanoma
M14 melanoma = system: M14 melanoma
MALME-3M melanoma = system: MALME-3M melanoma
MCF7 breast = system: MCF7 breast
MDA-MB-231 breast = system: MDA-MB-231 breast
MDA-MB-435 = system: MDA-MB-435
MOLT-4 leukemia = system: MOLT-4 leukemia
NCI-H226 lung = system: NCI-H226 lung
NCI-H23 lung = system: NCI-H23 lung
NCI-H460 lung = system: NCI-H460 lung
NCI/ADR-RES ovarian = system: NCI/ADR-RES ovarian
OVCAR-3 ovarian = system: OVCAR-3 ovarian
OVCAR-4 ovarian = system: OVCAR-4 ovarian
OVCAR-5 ovarian = system: OVCAR-5 ovarian
OVCAR-8 ovarian = system: OVCAR-8 ovarian
PC-3 prostate = system: PC-3 prostate
RPMI-8226 leukemia = system: RPMI-8226 leukemia
RXF 393 renal = system: RXF 393 renal
SF-295 CNS = system: SF-295 CNS
SK-MEL-2 melanoma = system: SK-MEL-2 melanoma
SK-MEL-28 melanoma = system: SK-MEL-28 melanoma
SK-MEL-5 melanoma = system: SK-MEL-5 melanoma
SN12C renal = system: SN12C renal
SNB-19 CNS = system: SNB-19 CNS
SNB-75 CNS = system: SNB-75 CNS
SR leukemia = system: SR leukemia
SW-620 colon = system: SW-620 colon
T-47D breast = system: T-47D breast
TK-10 renal = system: TK-10 renal
U251 CNS = system: U251 CNS
UACC-257 melanoma = system: UACC-257 melanoma
UO-31 renal = system: UO-31 renal

Measured: TGI

Nc1ncnc2c1ncn2C=C=CCO
> 100 µM: all assays above

Reference: PubChem BioAssay (NCI)
